Assay results reported in patent publication US20070077283A1, “METHOD OF ENHANCING TRANSMUCOSAL DELIVERY OF THERAPEUTIC COMPOUNDS” (Nastech Pharmaceutical Company Inc., priority 2005, published 2007).
Values joined by “and” are separate entries in the source; they are usually repeats but may differ in a detail not shown here. Identical values can stand only once.

Columns and labels:
Type in all cases: cell-based
[1] = tested on: human-derived tracheal/bronchial epithelial cells (EpiAirway Tissue Model); assay: FITC-Dextran permeation assay across epithelial cell monolayer; settings: for Mean % FD3 Permeation: FITC-dextran 3000 (Table 4); for permeation of FD3 relative to negative controls: text summary of Table 4
Summary of the method: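 Formulations applied apically to EpiAirway tissue inserts, shaken ~100 rpm 1.5 hours at 37 °C, with FITC-dextran (3-500 kDa) added apically. Basolateral fluorescence read at 470 nm in triplicate; result expressed as percent of FITC-dextran crossing apical to basolateral.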

[2] = tested on: human-derived tracheal/bronchial epithelial cells (EpiAirway Tissue Model); assay: TER recovery / TER time course; settings: for TER Recovery (ohms) 16 Hours / TER Recovery (ohms) 0 Hour: lipid 1000 μM in Buffer I; for TER Recovery (ohms) 16 Hours: 16 hours post-treatment; for TER Recovery (ohms) 0 Hour: zero hour post-treatment
Description: TER recovery was calculated as described in the above paragraph.
Reversibility is a critical factor in selecting epithelial cell permeabiling enhancers since the barrier function of the epithelial cells serves as the first line of defense against pathogens and the entrance of toxins into the body. The permeation enhancing lipids C16 PAF; C18 PAF; C16 Enantiomeric PAF; POVPC; C16-04: 1 PC and PGPC were incubated with a monolayer of human-derived tracheal/bronchial epithelial cells (EpiAirway™ Model System) and TER […] The lipid glucosyl sphingosine was also tested. Each permeation enhancing lipid (except PGPC) was applied at a concentration of 1000 μM for 15, 30 and 60 minutes. The permeation enhancing lipid PGPC and the lipid glucosyl sphingosine were applied at a concentration of 500 μM for 1, 3, 5, 30 and 60 minutes. TER measurements were taken immediately after each application to determine how quickly each lipid could reduce TER.
[…] […] PBS served as a negative control and Triton-X100™ served as a positive control.
To asses how quickly the cells recovered after application and removal of the permeation enhancing lipid PGPC and the lipid glucosyl sphingosine, TER measurements were taken at 1, 3, 5, 7, and 9 hours post-treamtnet for each of the prior mentioned timed treatments (i.e., 1, 3, 5, 15, 30 and 60 minutes). TER recovery measures the reversibility of the lipid mediated effect on an epithelia. […] Hyptonic PBS served as a negative control for TER reduction and TER recovery.

[3] = tested on: human-derived tracheal/bronchial epithelial cells (EpiAirway Tissue Model); assay: Transepithelial electrical resistance (TER) of an epithelial cell monolayer; settings: for activity at 500 µM / activity at 1000 µM: Homo sapiens, Epithelial cell, 1 h, read-out: Mean % of Original TER Value; for activity at 500 µM: lipid 500 μM (Table 4); for activity at 1000 µM: lower value = greater TER reduction (Table 4); for TER reduction within 15 minutes: 15 minute incubation
Summary of the method: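 EpiAirway human tracheal/bronchial epithelial tissue inserts, fed daily during recovery; resistance read with EVOM voltohmmeter in Endohm-12 chamber in MatTek medium, blank-insert background (about 5-20 ohms) measured. TER normalised to tissue surface area, expressed as Ohms*cm2 and percent of original TER; lower TER taken as enhanced permeation.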

[4] = after 1, 3, 5, 15 and 30 minute treatments, lipids 500 μM, PN159 25 μM
[5] = after 60 minute treatment, lipids 500 μM, PN159 25 μM
[6] = lipid 1000 μM, percent decrease in TER from time zero

SMILES	Mean % FD3 Permeation ([1]; lipid 500 μM) [%]	% FITC-Dextran Permeation FD10 ([1]; lipid 1000 μM) [%]	% FITC-Dextran Permeation FD40 ([1]; lipid 1000 μM) [%]	% FITC-Dextran Permeation FD70 ([1]; lipid 1000 μM) [%]	% FITC-Dextran Permeation FD500 ([1]; lipid 1000 μM) [%]	% FITC-Dextran Permeation FD3 ([1]; lipid 1000 μM (Table 5)) [%]	% FD3 Permeation ([1]; lipid 1000 μM in Buffer I) [%]	% FD3 Permeation ([1]; lipid 1000 μM in Buffer II) [%]	Mean % FD3 Permeation ([1]; lipid 1000 μM) [%]	permeation of FD3 relative to negative controls [1]	TER Recovery (ohms) 16 Hours [2] [ohms]	TER Recovery (ohms) 0 Hour [2] [ohms]	activity at 500 µM [3] [%]	activity at 1000 µM ([3]; lipid 1000 μM) [%]	% Original TER ([3]; lipid 1000 μM in Buffer I) [%]	% Original TER ([3]; lipid 1000 μM in Buffer II) [%]	TER reduction within 15 minutes ([3]; lipid 1000 μM)	other results
CCCCCCCCCCCCCCCCOC[C@H](COP(=O)([O-])OCC[N+](C)(C)C)OC(C)=O [C16-02:0 PC(C16 PAF), 1-O-Hexadecyl-2-Acetoyl-sn-Glycero-3-Phosphocholine]	5	6	2	2	0	22	41	27	14	enhanced the permeation of FD3 above that of the negative controls	650	9	27	2	1	8	levels equivalent to that of the Triton-X100™ control	
C=CCC(=O)O[C@H](COCCCCCCCCCCCCCCCC)COP(=O)([O-])OCC[N+](C)(C)C [C16-04:1 PC]	6	8	3	0	0	25	44	8	12	enhanced the permeation of FD3 above that of the negative controls	520	10	11	-2	2	23		
CC(C)C[C@H](NC(=O)[C@H](C)NC(=O)[C@H](CCCCN)NC(=O)[C@H](CC(C)C)NC(=O)[C@H](C)NC(=O)[C@H](CC(C)C)NC(=O)[C@H](CCCCN)NC(=O)[C@H](CC(C)C)NC(=O)[C@H](C)NC(=O)[C@H](CC(C)C)NC(=O)[C@@H](N)CCCCN)C(=O)N[C@@H](CCCCN)C(=O)N[C@@H](C)C(=O)N[C@@H](C)C(=O)N[C@@H](CC(C)C)C(=O)N[C@@H](CCCCN)C(=O)N[C@@H](CC(C)C)C(=O)N[C@@H](C)C(N)=O [PN159, reference compound]																		% FITC-Dextran Permeation FD10 ([1]; PN159 25 μM): 4%; % FITC-Dextran Permeation FD40 ([1]; PN159 25 μM): 2%; % FITC-Dextran Permeation FD3 ([1]; PN159 25 μM (Table 5)): 7%; time to full TER recovery (PBS control levels) [2, 4]: 2 h; time to full TER recovery (PBS control levels) [2, 5]: 9 h; time to TER reduction ([2]; lipids 500 μM, PN159 25 μM): 10 min; % Original TER ([3]; PN159 25 μM / PYY 13.67 mg/mL (High)): 10%; % of the original TER value ([3]; controls of the further test of lipids at 250 μM to 1000 μM (b219-b220)): 8%; Mean TER Reduction 1 hr. Post-treatment ([3]; positive control PN159 25 μM): 85% and 87%
CCCCCCCCCCCCCCCCOC[C@@H](COP(=O)([O-])OCC[N+](C)(C)C)OC(C)=O [C16 Enantiomeric PAF, 3-O-Hexadecyl-2-Acetoyl-sn-Glycero-1-Phosphocholine]		4	2	1	0	20	46	23	11	enhanced the permeation of FD3 above that of the negative controls	462	9		1	2	9	levels equivalent to that of the Triton-X100™ control	
CCCCCCCCCCCCCCCC(=O)OC[C@H](COP(=O)([O-])OCC[N+](C)(C)C)OC(=O)CCCC(=O)O [PGPC, 1-Palmitoyl-2-Glutaroyl-sn-Glycero-3-Phosphocholine]																		% FITC-Dextran Permeation FD3 ([1]; lipid 500 μM (Table 5)): 10%; time to full TER recovery (PBS control levels) [2, 4]: fully recovered within one hour; time to full TER recovery (PBS control levels) [2, 5]: did not reach PBS TER control levels until three hours post-treatment; Mean TER Reduction 1 hr. Post-treatment ([3]; lipid 62.5 μM): 21%; Mean TER Reduction 1 hr. Post-treatment ([3]; lipid 125 μM): 28%; Mean TER Reduction 1 hr. Post-treatment ([3]; lipid 250 μM): 48%; Mean TER Reduction 1 hr. Post-treatment ([3]; lipid 500 μM): 80%; Mean TER Reduction 1 hr. Post-treatment [3, 6]: 92%
CCCCCCCCCCCCCCCC(=O)OC[C@H](COP(=O)([O-])OCC[N+](C)(C)C)OC(=O)CCCC=O [POVPC, 1-Palmitoyl-2-(5′-oxo-Valeroyl)-sn-Glycero-3-Phosphocholine]		3	1	0.3	0	10	53	9	10	enhanced the permeation of FD3 above that of the negative controls	508	71		0	25	17		permeation of FITC-dextran 3000 (FD3) over time ([1]; 1000 μM, 15, 30, 60 minutes): time-dependent permeation; % FITC-Dextran Permeation FD3 ([1]; lipid 500 μM (Table 5)): 2%; TER reduction by 60 minutes ([3]; 1000 μM, 60 minutes): levels nearly equivalent to that of the Triton-X100™ control; TER reduced to % below that of the PBS control ([3]; 1000 μM, within 15 minutes): 20%; TER reduced to % of the PBS control ([3]; 1000 μM, within 30 minutes): about 25%; Mean TER Reduction 1 hr. Post-treatment ([3]; lipid 62.5 μM): 23%; Mean TER Reduction 1 hr. Post-treatment ([3]; lipid 125 μM): 32%; Mean TER Reduction 1 hr. Post-treatment ([3]; lipid 250 μM): 52%; Mean TER Reduction 1 hr. Post-treatment ([3]; lipid 500 μM): 87%; Mean TER Reduction 1 hr. Post-treatment [3, 6]: 93%
CCCCCCCCCCCCCCCCCCOC[C@H](COP(=O)([O-])OCC[N+](C)(C)C)OC(C)=O [C18-02:0 PC(C18 PAF), 1-O-Octadecyl-2-Acetoyl-sn-Glycero-3-Phosphocholine]	2	8	3	2	0	24	42	27	8	enhanced the permeation of FD3 above that of the negative controls	497	6	44	1	1	7	levels equivalent to that of the Triton-X100™ control	
